In patent US5472954A, “Cyclodextrin complexation” (priority 1993, dated 1995):
Converted amounts (≈) assume the structure as drawn.

How the values were obtained:
[1] = ΔH, ΔS and stability constant (Kc) of drug-HPβCD MS 0.6 complexes, effect of PVP (Example 17); format: physicochemical; conditions: for ΔH / ΔS: HPβCD MS 0.6 complex
Method: The effect of polyvinylpyrrolidone (PVP) on the enthalpy (ΔH) and the entropy (ΔS) of the stability constant (Kc) of the drug-cyclodextrin complex was determined.
An excess amount of the drug was added to water containing 0, 0.1, 0.25 or 0.5% (w/v) PVP and various amounts of HPβCD or HPαCD.

[2] = physchem
[3] = physchem; remark: listed apart in the source
[4] = physchem; remark: listed apart in the source
[5] = physchem; remark: listed apart in the source
[6] = Effect of polymers on the solubilization of various compounds in aqueous HPβCD solutions (Example 14)
Method: An excess amount of the compound to be tested was added to each solvent and the suspensions which formed were heated in sealed containers to 120° C. The solubility of salicylic acid was determined in acidic (HCl) solution.

[7] = Effect of previously prepared solid HPβCD-polymer complexing agent on solubility (Example 13); format: physicochemical
Method: The resultant solutions were heated in sealed containers to 120° C. and maintained at that temperature for 30 minutes, then were lyophilized. The solids thus obtained were ground with a mortar and pestle.
The solid cyclodextrin/polymer products were reconstituted with water to afford solutions containing 9.88% (w/v) HPβCD and 0.12% (w/v) PVP, 0.12% (w/v) or CMC 0.12% (w/v) HPMC. The solubilities (S) of three drugs in these solutions and in an aqueous solution containing 10% (w/v) HPβCD without added polymer were then determined as follows:
An excess amount of each drug was added to each of the four cyclodextrin solutions and the solutions were sonicated in an ultrasonic bath for 3 hours, then allowed to equilibrate for 60 hours at room temperature (23° C.). […] However, by separate preparation of the cyclodextrin/polymer complexing agent as illustrated here, one can readily avoid heating drugs which are unstable at elevated temperature.

[8] = HPβCD with CMC / HPβCD without polymer (S6)
[9] = HPβCD with HPMC / HPβCD without polymer (S8)
[10] = HPβCD with PVP / HPβCD without polymer (S7)

Which ΔH ([1]; PVP 0.00% w/v) does the source give for `C[C@]12CC[C@@H]3c4ccc(O)cc4CC[C@H]3[C@@H]1CC[C@@H]2O` [17β-Estradiol, 17β-estradiol] here?
The ΔH was -17 kcal/mol.

And the ΔS ([1]; PVP 0.00% w/v)?
The ΔS was -151 J mol^-1 K^-1.

And the ΔH ([1]; PVP 0.10% w/v)?
The ΔH was -18 kcal/mol.

What about the ΔS ([1]; PVP 0.10% w/v) of the same compound?
Its ΔS is -166 J mol^-1 K^-1.

And the ΔH ([1]; PVP 0.25% w/v)?
The ΔH was -21.4 kcal/mol.

And the ΔS ([1]; PVP 0.25% w/v)?
The ΔS was -213 J mol^-1 K^-1.

What about the ΔH ([1]; PVP 0.50% w/v) of the same compound?
Its ΔH is -19.4 kcal/mol.

What about the ΔS ([1]; PVP 0.50% w/v) of the same compound?
Its ΔS is -185 J mol^-1 K^-1.

Which solubility ([2]; 0.25% cmc + 10% hpbetacd) does the source give for `CC(=O)Nc1nnc(S(N)(=O)=O)s1` [Acetazolamide, acetazolamide] here?
Its solubility is 3110 µg/mL.

And the solubility ([2]; aqueous 0.25% cmc)?
Its solubility is 840 µg/mL (≈ 3.78 mM).

What about the solubility ([2]; aqueous 10% hpbetacd) of the same compound?
The solubility was 2520 µg/mL (≈ 11.3 mM).

What about the solubility ([2]; water) of the same compound?
The solubility was 700 µg/mL (≈ 3.15 mM).

What about the solubility ([3]; 0.10% cmc, 10% hpβcd) of the same compound?
The solubility was 3600 µg/mL (≈ 16.2 mM).

And the solubility ([3]; 0.25% cmc, 10% hpβcd)?
Its solubility is 3210 µg/mL (≈ 14.4 mM).

What about the solubility ([3]; 0.50% cmc, 10% hpβcd) of the same compound?
The solubility was 3750 µg/mL (≈ 16.9 mM).

And the solubility ([3]; aqueous 10% hpβcd ms=0.9)?
The solubility was 2520 µg/mL (≈ 11.3 mM).

And the solubility at 72 h ([4]; 0.25% pvp, 10% hpβcd)?
The solubility at 72 h was 3660 µg/mL (≈ 16.5 mM).

And the solubility at 72 h ([4]; 10% hpβcd ms 0.7)?
The solubility at 72 h was 2800 µg/mL (≈ 12.6 mM).

What about the solubility at 72 h ([4]; aqueous 0.25% pvp) of the same compound?
Its solubility at 72 h is 1050 µg/mL (≈ 4.72 mM).

What about the solubility at 72 h ([4]; water) of the same compound?
The solubility at 72 h was 700 µg/mL (≈ 3.15 mM).

And the ΔH ([1]; PVP 0.00% w/v)?
The ΔH was -4.4 kcal/mol.

What about the ΔS ([1]; PVP 0.00% w/v) of the same compound?
The ΔS was -26.0 J mol^-1 K^-1.

And the ΔH ([1]; PVP 0.10% w/v)?
The ΔH was -6.17 kcal/mol.

What about the ΔS ([1]; PVP 0.10% w/v) of the same compound?
Its ΔS is -49.6 J mol^-1 K^-1.

And the ΔH ([1]; PVP 0.25% w/v)?
Its ΔH is -5.93 kcal/mol.

What about the ΔS ([1]; PVP 0.25% w/v) of the same compound?
The ΔS was -46.2 J mol^-1 K^-1.

What about the ΔH ([1]; PVP 0.50% w/v) of the same compound?
The ΔH was -6.17 kcal/mol.

And the ΔS ([1]; PVP 0.50% w/v)?
The ΔS was -49.8 J mol^-1 K^-1.

And the “increase in apparent stability constant” value ([1]; HPβCD complex, 0.25% PVP (w/v))?
The value was 13%.

What about the solubility ([5]; 0.25% cmc in water) of the same compound?
Its solubility is 840 µg/mL (≈ 3.78 mM).

And the solubility ([5]; 0.25% cmc, 10% hpbcd)?
Its solubility is 3110 µg/mL (≈ 14 mM).

What about the solubility ([5]; 10% ethanol in water, organic solvent or mixture) of the same compound?
Its solubility is 1110 µg/mL (≈ 4.99 mM).

What about the solubility ([5]; 10% ethanol, 0.25% cmc, organic solvent or mixture) of the same compound?
The solubility was 750 µg/mL (≈ 3.37 mM).

What about the solubility ([5]; 10% ethanol, 10% hpbcd, organic solvent or mixture) of the same compound?
The solubility was 2190 µg/mL (≈ 9.85 mM).

What about the solubility ([5]; 10% hpbcd in water) of the same compound?
The solubility was 2520 µg/mL (≈ 11.3 mM).

And the solubility ([5]; ethanol, cmc, hpbcd, organic solvent or mixture)?
The solubility was 2500 µg/mL (≈ 11.2 mM).

What about the solubility ([5]; water) of the same compound?
Its solubility is 700 µg/mL (≈ 3.15 mM).

Which results are given for `Cc1nnc2n1-c1ccc(Cl)cc1C(c1ccccc1)=NC2` [Alprazolam]?
solubility ([2]; 0.25% cmc + 10% hpbetacd): 1550 µg/mL; solubility ([2]; aqueous 0.25% cmc): 180 µg/mL (≈ 0.583 mM); solubility ([2]; aqueous 10% hpbetacd): 1280 µg/mL (≈ 4.15 mM); solubility ([2]; water): 70 µg/mL (≈ 0.227 mM)

With `COc1ccc(O)c(C(C)(C)C)c1` [Butylated hydroxyanisole] as the compound, how does the S2 solubility ([6]; 0.25% (w/v) CMC) read?
Its S2 solubility is 400 µg/mL.

And the S4 solubility ([6]; 0.25% (w/v) HPMC)?
The S4 solubility was 280 µg/mL.

And the S3 solubility ([6]; 0.25% (w/v) PVP)?
The S3 solubility was 1240 µg/mL.

And the S6 solubility ([6]; 0.25% CMC and 10% HPβCD MS=0.6 (salicylic acid: acidic HCl solution))?
The S6 solubility was 14300 µg/mL.

And the S8 solubility ([6]; 0.25% HPMC and 10% HPβCD MS=0.6 (salicylic acid: acidic HCl solution))?
Its S8 solubility is 15500 µg/mL.

What about the S7 solubility ([6]; 0.25% PVP and 10% HPβCD MS=0.6 (salicylic acid: acidic HCl solution)) of the same compound?
Its S7 solubility is 15800 µg/mL.

What about the S5 solubility ([6]; 10% (w/v) HPβCD MS=0.6 (salicylic acid: acidic HCl solution)) of the same compound?
The S5 solubility was 13900 µg/mL.

And the solubility ratio [6, 8]?
Its solubility ratio is 1.03.

And the solubility ratio [6, 9]?
Its solubility ratio is 1.12.

What about the solubility ratio [6, 10] of the same compound?
The solubility ratio was 1.14.

And the S1 solubility ([6]; water)?
The S1 solubility was 400 µg/mL.

With `CC12CCC(CC1=O)C2(C)C` (stereo not drawn) [Camphor] as the compound, how does the solubility ([6]; 0.25% hpmc + 10% hpβcd) read?
Its solubility is 13300 µg/mL.

And the solubility ([6]; 0.25% pvp + 10% hpβcd)?
The solubility was 13700 µg/mL.

And the solubility ([6]; aqueous 0.25% cmc)?
The solubility was 2010 µg/mL (≈ 13.2 mM).

What about the solubility ([6]; aqueous 0.25% cmc, 10% hpβcd) of the same compound?
Its solubility is 13800 µg/mL (≈ 90.6 mM).

And the solubility ([6]; aqueous 0.25% hpmc)?
Its solubility is 1920 µg/mL (≈ 12.6 mM).

And the solubility ([6]; aqueous 0.25% pvp)?
The solubility was 2200 µg/mL (≈ 14.5 mM).

And the solubility ([6]; aqueous 10% hpβcd)?
Its solubility is 12700 µg/mL (≈ 83.4 mM).

What about the solubility ([6]; water) of the same compound?
The solubility was 1840 µg/mL (≈ 12.1 mM).

Which results are given for `CC(C)(O)C(Cl)(Cl)Cl` [Chlorbutol]?
solubility ([6]; 0.25% hpmc + 10% hpβcd): 29900 µg/mL; solubility ([6]; aqueous 0.25% cmc): 8410 µg/mL (≈ 47.4 mM); solubility ([6]; aqueous 0.25% cmc, 10% hpβcd): 29300 µg/mL (≈ 165 mM); solubility ([6]; aqueous 0.25% hpmc): 8150 µg/mL (≈ 45.9 mM); solubility ([6]; aqueous 0.25% pvp): 8410 µg/mL (≈ 47.4 mM); solubility ([6]; aqueous 10% hpβcd): 28600 µg/mL (≈ 161 mM); solubility ([6]; water): 8110 µg/mL (≈ 45.7 mM)

Which results are given for `C=C1CC[C@H](O)C/C1=C/C=C1\CCC[C@]2(C)[C@@H]([C@H](C)CCCC(C)C)CC[C@@H]12` [Cholecalciferol]?
solubility ([6]; 0.25% hpmc + 10% hpβcd): 690 µg/mL; solubility ([6]; 0.25% pvp + 10% hpβcd): 760 µg/mL; solubility ratio [6, 8]: 1.18; solubility ratio [6, 9]: 1.14; solubility ratio [6, 10]: 1.25; solubility ([6]; aqueous 0.25% cmc, 10% hpβcd): 720 µg/mL (≈ 1.87 mM); solubility ([6]; aqueous 10% hpβcd): 610 µg/mL (≈ 1.59 mM)

With `Clc1ccccc1C(c1ccccc1)(c1ccccc1)n1ccnc1` [Clotrimazole, clotrimazole] as the compound, how does the solubility ([2]; 0.25% cmc + 10% hpbetacd) read?
Its solubility is 1400 µg/mL.

What about the solubility ([2]; aqueous 10% hpbetacd) of the same compound?
Its solubility is 1200 µg/mL (≈ 3.48 mM).

And the solubility at 72 h ([4]; 0.25% pvp, 10% hpβcd)?
Its solubility at 72 h is 1800 µg/mL (≈ 5.22 mM).

What about the solubility at 72 h ([4]; 10% hpβcd ms 0.7) of the same compound?
Its solubility at 72 h is 1200 µg/mL (≈ 3.48 mM).

What does the source list for `Clc1ccc(COC(Cn2ccnc2)c2ccc(Cl)cc2Cl)cc1` (stereo not drawn) [Econazole, econazole]?
solubility ([2]; 0.25% cmc + 10% hpbetacd): 7410 µg/mL; solubility ([2]; aqueous 0.25% cmc): 600 µg/mL (≈ 1.57 mM); solubility ([2]; aqueous 10% hpbetacd): 4860 µg/mL (≈ 12.7 mM); solubility ([2]; water): 570 µg/mL (≈ 1.49 mM); solubility at 72 h ([4]; 0.25% pvp, 10% hpβcd): 5650 µg/mL (≈ 14.8 mM); solubility at 72 h ([4]; 10% hpβcd ms 0.7): 5220 µg/mL (≈ 13.7 mM); solubility at 72 h ([4]; aqueous 0.25% pvp): 640 µg/mL (≈ 1.68 mM); solubility at 72 h ([4]; water): 570 µg/mL (≈ 1.49 mM); solubility ([7]; 9.88% hpbetacd + 0.12% cmc, 9.88% (w/v) HPβCD and 0.12% (w/v) CMC, read-out: S3 solubility): 5200 µg/mL; solubility ([7]; 9.88% hpbetacd + 0.12% hpmc, 9.88% (w/v) HPβCD and 0.12% (w/v) HPMC, read-out: S4 solubility): 6320 µg/mL; solubility ([7]; 9.88% hpbetacd + 0.12% pvp, 9.88% (w/v) HPβCD and 0.12% (w/v) PVP, read-out: S2 solubility): 5570 µg/mL; solubility ([7]; 10% hpbetacd, 10% (w/v) HPβCD, read-out: S1 solubility): 4860 µg/mL (≈ 12.7 mM)
